Test results taken from patent US10005739B2, “Quinazolinone and isoquinolinone derivative” (CHUGAI SEIYAKU KABUSHIKI KAISHA, priority 2013, dated 2018).

Target: DDR1 (Homo sapiens (Human), UniProt Q08345)
Experiment: Measurement of DDR1 enzyme inhibitory activity (phosphorylation of biotinylated peptide, time-resolved fluorescence)
Assay type: biochemical
Details: human DDR1 enzyme, biotinylated peptide phosphorylation; read-out: DDR1 enzyme inhibition assay IC50
Method: 1. Measurement of DDR1 Enzyme Inhibitory Activity
The DDR1 enzyme inhibitory activity was determined with human DDR1 enzyme prepared using the baculovirus expression system, based on the inhibitory activity of phosphorylation of a biotinylated peptide ([…]) by the enzyme. The phosphorylated biotinylated peptide was detected using time-resolved fluorescence, with an anti-phosphorylated tyrosine antibody conjugated with europium cryptate and streptavidin conjugated with XL665 which is a derivative of allophycocyanin.

DDR1, sequence (Q08345 19-913): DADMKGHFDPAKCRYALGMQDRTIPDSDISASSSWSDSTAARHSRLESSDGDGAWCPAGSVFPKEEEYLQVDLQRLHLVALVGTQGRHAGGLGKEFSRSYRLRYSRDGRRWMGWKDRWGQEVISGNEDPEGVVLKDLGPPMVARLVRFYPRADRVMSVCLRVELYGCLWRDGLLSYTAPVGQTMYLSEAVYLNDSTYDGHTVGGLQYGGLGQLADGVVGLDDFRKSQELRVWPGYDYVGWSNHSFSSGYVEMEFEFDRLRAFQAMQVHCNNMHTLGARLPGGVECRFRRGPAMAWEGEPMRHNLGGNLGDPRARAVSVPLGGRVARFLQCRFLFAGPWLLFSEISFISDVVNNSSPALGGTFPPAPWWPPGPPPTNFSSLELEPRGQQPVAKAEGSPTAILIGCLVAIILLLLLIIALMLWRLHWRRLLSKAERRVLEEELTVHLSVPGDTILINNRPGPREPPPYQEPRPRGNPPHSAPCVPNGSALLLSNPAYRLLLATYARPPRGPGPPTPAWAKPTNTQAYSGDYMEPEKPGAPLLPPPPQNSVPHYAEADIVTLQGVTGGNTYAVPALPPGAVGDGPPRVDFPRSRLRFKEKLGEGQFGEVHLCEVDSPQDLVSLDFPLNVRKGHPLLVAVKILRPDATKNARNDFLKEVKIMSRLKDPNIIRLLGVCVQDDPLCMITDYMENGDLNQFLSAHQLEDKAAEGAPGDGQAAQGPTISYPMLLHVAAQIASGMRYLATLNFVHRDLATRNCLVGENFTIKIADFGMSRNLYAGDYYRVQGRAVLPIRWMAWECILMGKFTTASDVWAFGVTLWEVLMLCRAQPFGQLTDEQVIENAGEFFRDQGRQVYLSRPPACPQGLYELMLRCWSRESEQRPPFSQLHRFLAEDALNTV

| IC50 | SMILES |
| --- | --- |
| 450 nM | CCSc1cc(Cl)c(C#N)cc1Nn1cnc2ccc(C(F)(F)F)cc2c1=O [Compound C-42, 2-Chloro-4-ethylsulfanyl-5-[[4-oxo-6-(trifluoromethyl)quinazolin-3-yl]amino]benzonitrile] |
| 280 nM | CCSc1c(Cl)cc(Cl)cc1Nn1cnc2ccc(C(F)(F)F)cc2c1=O [Compound C-38, 3-(3,5-Dichloro-2-ethylsulfanylanilino)-6-(trifluoromethyl)quinazolin-4-one] |
| 340 nM | CCSc1ccc(F)cc1Nn1cnc2c(Br)cc(OC(F)(F)F)cc2c1=O [Compound C-19, 8-Bromo-3-(2-ethylsulfanyl-5-fluoroanilino)-6-(trifluoromethoxy)quinazolin-4-one] |
| 810 nM | CCS(=O)(=O)c1ccc([N+](=O)[O-])cc1Cn1ccc2ccc(OC(F)(F)F)cc2c1=O [Compound F-9, 2-[(2-Ethylsulfonyl-5-nitrophenyl)methyl]-7-(trifluoromethoxy)isoquinolin-1-one] |
| 230 nM | CCSc1ccc(C#N)cc1Nn1cnc2cc(Br)c(OC(F)(F)F)cc2c1=O [Compound C-17, 3-[[7-Bromo-4-oxo-6-(trifluoromethoxy)quinazolin-3-yl]amino]-4-ethylsulfanylbenzonitrile] |
| 140 nM | CCS(=O)(=O)c1c(Cl)cc(Cl)cc1Nn1cnc2ccc(C(F)(F)F)cc2c1=O [Compound C-39, 3-(3,5-Dichloro-2-ethylsulfonylanilino)-6-(trifluoromethyl)quinazolin-4-one] |
| 160 nM | CCSc1ccc(OC)cc1Nn1cnc2c(Br)cc(C(F)(F)F)cc2c1=O [Compound C-29, 8-Bromo-3-(2-ethylsulfanyl-5-methoxyanilino)-6-(trifluoromethyl)quinazolin-4-one] |
| 99 nM | CCSc1ccc(C#N)cc1Nn1cnc2ccc(C(F)(F)F)cc2c1=O [Compound C-9, 4-Ethylsulfanyl-3-[[4-oxo-6-(trifluoromethyl)quinazolin-3-yl]amino]benzonitrile] |
| 1100 nM | CCS(=O)(=O)c1ccc(Cl)cc1Cn1cnc2cc(C)c(Br)cc2c1=O [Compound E-6, 6-Bromo-3-[(5-chloro-2-ethylsulfonylphenyl)methyl]--7-methylquinazolin-4-one] |
| 210 nM | CCS(=O)(=O)c1ccc(C(F)(F)F)cc1Nn1cnc2c(Br)cc(C(F)(F)F)cc2c1=O [Compound C-35, 8-Bromo-3-[2-ethylsulfonyl-5-(trifluoromethyl)anilino]-6-(trifluoromethyl)quinazolin-4-one] |
| 52 nM | CCS(=O)(=O)c1ccc(Cl)cc1Nn1cnc2ccc(SC)cc2c1=O [Compound A-66, 3-(5-Chloro-2-ethylsulfonylanilino)-6-methylsulfanylquinazolin-4-one] |
| 740 nM | Cc1cc(Br)c2ncn(Nc3cc(Cl)ccc3[S+]([O-])c3ccccc3)c(=O)c2c1 (stereo not drawn) [Compound B-13, 3-[2-(Benzenesulfinyl)-5-chloroanilino]-8-bromo-6-methylquinazolin-4-one] |
| 290 nM | CCS(=O)(=O)c1ccc(OC)cc1Nn1cnc2ccc(OC(F)(F)F)cc2c1=O [Compound C-28, 3-(2-Ethylsulfonyl-5-methoxyanilino)-6-(trifluoromethoxy)quinazolin-4-one] |
| 150 nM | CCS(=O)(=O)c1ccc(Br)cc1Nn1cnc2c(Br)cc(C(F)(F)F)cc2c1=O [Compound C-26, 8-Bromo-3-(5-bromo-2-ethylsulfonylanilino)-6-(trifluoromethyl)quinazolin-4-one] |
| 180 nM | CCSc1ccc(Br)cc1Nn1cnc2c(Br)cc(C(F)(F)F)cc2c1=O [Compound C-25, 8-Bromo-3-(5-bromo-2-ethylsulfanylanilino)-6-(trifluoromethyl)quinazolin-4-one] |
| 330 nM | CCS(=O)(=O)c1cc(Cl)c(C#N)cc1Nn1cnc2ccc(C(F)(F)F)cc2c1=O [Compound C-43, 2-Chloro-4-ethylsulfonyl-5-[[4-oxo-6-(trifluoromethyl)quinazolin-3-yl]amino]benzonitrile] |
| 150 nM | CCS(=O)(=O)c1ccc(Cl)cc1Cn1cnc2c(Br)c(C)c(Br)cc2c1=O [Compound E-17, 6,8-Dibromo-3-[(5-chloro-2-ethylsulfonylphenyl)methyl]-7-methylquinazolin-4-one] |
| 630 nM | CCS(=O)(=O)c1ccc(C#N)cc1Cn1cnc2ccc(C(F)(F)F)cc2c1=O [Compound E-28, 4-Ethylsulfonyl-3-[[4-oxo-6-(trifluoromethyl)quinazolin-3-yl]methyl]benzonitrile] |
| 860 nM | N#Cc1ccc(Sc2ccccc2)c(Nn2cnc3ccc(C(F)(F)F)cc3c2=O)c1 [Compound B-15, 3-[[4-Oxo-6-(trifluoromethyl)quinazolin-3-yl]amino]-4-phenylsulfanylbenzonitrile] |
| 430 nM | CCS(=O)(=O)c1ccc(C#N)cc1Nn1cnc2cc(Br)c(OC(F)(F)F)cc2c1=O [Compound C-18, 3-[[7-bromo-4-oxo-6-(trifluoromethoxy)quinazolin-3-yl]amino]-4-ethylsulfonylbenzonitrile] |
| 750 nM | CCSc1ccc(C#N)cc1Nn1cnc2ncc(Br)cc2c1=O [Compound C-7, 3-[(6-Bromo-4-oxopyrido[2,3-d]pyrimidin-3-yl)amino]-4-ethylsulfanylbenzonitrile] |

Further lines, the molecule ahead of its results:

| SMILES | IC50 |
| --- | --- |
| CCS(=O)(=O)c1ccc(Cl)cc1Nn1cnc2ccc(I)cc2c1=O [Compound A-61, 3-(5-Chloro-2-ethylsulfonylanilino)-6-iodoquinazolin-4-one] | 290 nM |
| CCc1ccc2ncn(Nc3cc(Cl)ccc3S(=O)(=O)CC)c(=O)c2c1 [Compound A-53, 3-(5-Chloro-2-ethylsulfonylanilino)-6-ethylquinazolin-4-one] | 180 nM |
| CCS(=O)(=O)c1ccc(Cl)cc1Nn1cnc2cc(C)c(Br)cc2c1=O [Compound A-8, 6-Bromo-3-(5-chloro-2-ethylsulfonylanilino)-7-methylquinazolin-4-one] | 550 nM |
| CCCc1ccc2ncn(Nc3cc(Cl)ccc3S(=O)(=O)CC)c(=O)c2c1 [Compound A-55, 3-(5-Chloro-2-ethylsulfonylanilino)-6-propylquinazolin-4-one] | 240 nM |
| CCS(=O)(=O)c1ccc(Cl)cc1Nn1cnc2ccc(C(C)C)cc2c1=O [Compound A-63, 3-(5-Chloro-2-ethylsulfonylanilino)-6-propan-2-ylquinazolin-4-one] | 200 nM |
| CCS(=O)(=O)c1ccc(Cl)cc1Nn1cnc2cc(Br)c(C(F)F)cc2c1=O [Compound A-6, 7-Bromo-3-(5-chloro-2-ethylsulfonylanilino)-6-(difluoromethyl)quinazolin-4-one] | 70 nM |
| CCSc1ccc(Cl)cc1Nn1cnc2ccc(CC)cc2c1=O [Compound A-52, 3-(5-Chloro-2-ethylsulfanylanilino)-6-ethylquinazolin-4-one] | 200 nM |
| CCS(=O)(=O)c1ccc(Cl)cc1Nn1cnc2cc(OC)c(OC)cc2c1=O [Compound A-39, 3-(5-Chloro-2-ethylsulfonylanilino)-6-dimethoxyquinazolin-4-one] | 1750 nM |
| CCS(=O)(=O)c1ccc(Cl)cc1Nn1cnc2ncc(C(F)(F)F)cc2c1=O [Compound A-24, 3-(5-Chloro-2-ethylsulfonylanilino)-6-(trifluoromethyl)pyrido[2,3-d]pyrimidin-4-one] | 190 nM |
| CCS(=O)(=O)c1ccc(Cl)cc1Nn1cnc2cc(F)c(F)cc2c1=O [Compound A-31, 3-(5-Chloro-2-ethylsulfonylanilino)-6,7-difluoroquinazolin-4-one] | 380 nM |
| CCS(=O)(=O)c1ccc(Cl)cc1Nn1cnc2ccc(OC)cc2c1=O [Compound A-35, 3-(5-Chloro-2-ethylsulfonylanilino)-6-methoxyquinazolin-4-one] | 95 nM |
| CCSc1ccc(Cl)cc1Nn1cnc2ccc(SC)cc2c1=O [Compound A-48, 3-(5-Chloro-2-ethylsulfanylanilino)-6-methylsulfanylquinazolin-4-one] | 200 nM |
| CCSc1ccc(Cl)cc1Nn1cnc2ccc(C)cc2c1=O [Compound A-50, 3-(5-Chloro-2-ethylsulfanylanilino)-6-methylquinazolin-4-one] | 57 nM |
| CCSc1ccc(Cl)cc1Nn1cnc2ccc([N+](=O)[O-])cc2c1=O [Compound A-56, 3-(5-Chloro-2-ethylsulfanylanilino)-6-nitroquinazolin-4-one] | 99 nM |
| CCS(=O)(=O)c1ccc(Cl)cc1Nn1cnc2ccc(C(F)(F)F)cc2c1=O [Compound A-10, 3-(5-Chloro-2-ethylsulfonylanilino)-6-(trifluoromethyl)quinazolin-4-one] | 120 nM |
| CCSc1ccc(Cl)cc1Nn1cnc2ccc(C(F)(F)F)cc2c1=O [Compound A-9, 3-(5-Chloro-2-ethylsulfanylanilino)-6-(trifluoromethyl)quinazolin-4-one] | 180 nM |
| CCSc1ccc(Cl)cc1Nn1cnc2c(Br)cc(C)cc2c1=O [Compound A-1, 8-Bromo-3-(5-chloro-2-ethylsulfanylanilino)-6-methylquinazolin-4-one] | 170 nM |
| CCS(=O)(=O)c1ccc(Cl)cc1Nn1cnc2ccc(S(C)(=O)=O)cc2c1=O [Compound A-49, 3-(5-Chloro-2-ethylsulfonylanilino)-6-methylsulfonylquinazolin-4-one] | 2130 nM |
| CCS(=O)(=O)c1ccc(Cl)cc1Nn1cnc2cc3c(cc2c1=O)OCO3 [Compound A-41, 7-(5-Chloro-2-ethylsulfonylanilino)-[1,3]dioxolo[4,5-g]quinazolin-8-one] | 1950 nM |
| CCS(=O)(=O)c1ccc(Cl)cc1Nn1cnc2c(Br)cc(C)cc2c1=O [Compound A-2, 8-Bromo-3-(5-chloro-2-ethylsulfonylanilino)-6-methylquinazolin-4-one] | 40 nM |
| CCSc1ccc(Cl)cc1Nn1cnc2c(Cl)cc(C(F)(F)F)cc2c1=O [Compound A-11, 8-Chloro-3-(5-chloro-2-ethylsulfanylanilino)-6-(trifluoromethyl)quinazolin-4-one] | 400 nM |
